Experimental data taken from US12049483B2, “Selective and noncovalent inhibitors of oncogenic RAS mutants” (New York University, priority 2020, dated 2024).
“Also recorded” adds a separate entry of the source.

Assays:
KRAS(G12C) = KRAS(G12C) (Homo sapiens, UniProt P01116, G12C); assay: BLI binding to KRAS(G12C); parameters: KRAS4B residues 1-174 containing G12C, G12V, G12D, G13D, Q61L, WT; His6 (N, cleaved yes); Avi-tag (N, cleaved yes); made in house; host or cells: E. coli BL21(DE3); details: nucleotide state GTPγS
Source text: Protein expression and purification. All proteins used for monobody development and binding assays, including RAS constructs (KRAS4B residues 1-174 containing G12C, G12V, G12D, G13D, Q61L, WT, NRAS(WT), and HRAS(WT)), Monobodies, and RAF-1 RBD (residues 51-131) were produced with an N-terminal tag containing His6, Avi-tag for biotinylation and a TEV protease recognition site using the pHBT vector. The proteins were produced in E. coli BL21(DE3). To produce biotinylated proteins, E. coli BL21(DE3) with the pBirA plasmid was used as the host and grown in the presence of 50 μM of biotin. Expressed proteins were purified using Ni-Sepharose columns (GE Healthcare) via gravitational flow, followed by dialysis in Tris buffered saline (TBS, 50 mM Tris-Cl pH7.5 containing 150 mM NaCl) for non-RAS proteins. TBS containing 20 mM MgCl2 and 0.5 mM DTT was used for RAS proteins. Samples were further purified using a Superdex 75 size exclusion column on AKTA Pure systems (GE Healthcare). HRAS(WT) and HRAS(G12C) (residues 1-166) used for crystallization was produced as a fusion protein with His6 and yeast SUMO at the N terminus using an in-house vector described previously. […]
Biolayer interferometry (BLI) analysis. […] BLI signals were analyzed using Octet Data Analysis software (Molecular Devices).

NRAS(WT) = target: T1, NRAS(WT) (Homo sapiens, UniProt P01111); assay: Yeast display binding titration, NRAS(WT); details: GTPγS and GDP bound states
T1 construct: made in house; host or cells: E. coli BL21(DE3) with pBirA
Procedure: Nucleotide exchange of RAS. Purified RAS proteins used in binding experiment and crystallization were prepared by diluting stock protein (typically containing 20-250 μM RAS) 25 times with 20 mM Tris-Cl buffer pH 7.5 containing 5 mM EDTA, 0.1 mM DTT and 1 mM final concentration of a nucleotide (GDP or GTPγS). Samples were incubated at 30° C. for 30 minutes. MgCl2 was then added to the sample at a final concentration of 20 mM and the solution was further incubated on ice for at least 5 minutes prior to use.
Monobody development. General procedures for the development of monobodies against purified protein targets have been described previously. After four rounds of phage display library selection using biotinylated KRAS(G12C) at concentrations of 100 nM, 100 nM, 50 nM and 50 nM, the genes encoding monobodies from the enriched phage pool were transferred to a yeast display vector, which was used to construct yeast-display libraries. The yeast display libraries were sorted using a Bio-Rad S3e fluorescence-activated cell sorter or a […] II cell sorter (BD Biosciences). […] Single clones were then screened for selective binding to RAS mutants. The expression of monobodies on the surface of yeast cells were detected using mouse anti-VS and anti-mouse IgG-FITC conjugate. Target binding was detected with neutravidin Dylight650. Yeast cells were analyzed using an iQue flow cytometer (Sartorius). […]

T1 sequence (P01111 whole entry): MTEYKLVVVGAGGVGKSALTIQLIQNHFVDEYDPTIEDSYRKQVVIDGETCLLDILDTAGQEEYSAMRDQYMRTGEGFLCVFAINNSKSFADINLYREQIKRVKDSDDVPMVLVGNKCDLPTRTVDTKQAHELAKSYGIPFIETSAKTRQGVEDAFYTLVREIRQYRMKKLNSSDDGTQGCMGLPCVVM

- koff (KRAS(G12C)): 0.0027 s⁻¹
Sequence: VSSVPTKLEVVAATPTSLLISWDAPAVTVFFYVITYGETGHGVGAFQAFKVPGSKSTATISGLKPGVDYTITVYARGYSKQGPYKPSPISINYRT [12VC1]
- binding (NRAS(WT)): no binding; also recorded: did not detectably bind
